Experimental data reported in patent US12637471B2, “Heterocyclic compounds, compositions, methods of preparation and uses thereof” (Organon R&D Finland Ltd, priority 2021, dated 2026).

Tests used:
Type in all cases: biochemical
[1] = target: T1, Recombinant human AKR1C3 (17β-HSD5) protein (Homo sapiens, UniProt P42330); assay: Inhibition of AKR1C3 (17β-hydroxysteroid dehydrogenase type 5) enzyme, fluorescence assay; conditions: inhibitor at 500 nM
T1 construct: made in house; host or cells: E. coli
T1 sequence (P42330 1-323): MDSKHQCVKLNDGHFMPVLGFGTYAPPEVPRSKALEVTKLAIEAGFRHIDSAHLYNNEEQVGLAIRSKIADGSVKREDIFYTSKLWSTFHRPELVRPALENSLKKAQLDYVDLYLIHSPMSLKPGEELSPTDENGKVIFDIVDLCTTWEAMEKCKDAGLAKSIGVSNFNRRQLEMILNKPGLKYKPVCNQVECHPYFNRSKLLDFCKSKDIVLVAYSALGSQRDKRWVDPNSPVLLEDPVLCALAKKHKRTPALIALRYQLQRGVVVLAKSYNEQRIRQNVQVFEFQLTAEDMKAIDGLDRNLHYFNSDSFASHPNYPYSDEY
Method: Inhibition of AKR1C3 (17β-Hydroxysteroid Dehydrogenase Type 5) Enzyme
Recombinant human AKR1C3 (17β-HSD5) protein (GenBank Accession No. NM_003739.6) produced in E. coli was used for screening. Recombinant protein (27 nM/1 μg/ml) was incubated in 20 mM KH2PO4, 1 mM EDTA, complete protease inhibitor cocktail, pH 7.4 with 1 μM 9-acetyl-2,3,6,7-tetrahydro-1H,5H,11H-pyrano[2,3-f]pyrido[3,2,1-ij]quinolin-11-one and 1 mM NADPH for 60 to 120 min at RT, in the presence of the potential inhibitor at 500 nM concentration. Inhibitor stock solutions were prepared in DMSO. Final concentration of DMSO was adjusted to 1% in all samples. The samples were analysed by fluorescent measurement with Tecan Spark microplate reader at wavelengths 420 nm for excitation and 510 nm for emission. Samples were evaluated against standards of 9-(1-hydroxyethyl)-2,3,6,7-tetrahydro-1H,5H,11H-pyrano[2,3-f]pyrido[3,2,1-ij]quinolin-11-one at concentrations 1 μM-10 nM. Background fluorescence was reduced from all the samples and standards. The concentrations of formed product were calculated from the standard curve with Tecan Spark Magellan software. The formed product concentrations were used to calculate conversion percentages. The inhibition percentages for the samples were calculated from the conversion percentages.
Inhibition percentages of samples were calculated using following formula: […]

[2] = target: T2, Recombinant human aldo-keto reductase family 1 member C2 (AKR1C2) protein (Homo sapiens, UniProt P52895); assay: Inhibition of the aldo-keto reductase family 1 member C2, 3H-dihydrotestosterone conversion; conditions: inhibitor at 10 μM
T2 construct: made in house; host or cells: Sf-9 insect cells (baculovirus)
T2 sequence (P52895 1-323): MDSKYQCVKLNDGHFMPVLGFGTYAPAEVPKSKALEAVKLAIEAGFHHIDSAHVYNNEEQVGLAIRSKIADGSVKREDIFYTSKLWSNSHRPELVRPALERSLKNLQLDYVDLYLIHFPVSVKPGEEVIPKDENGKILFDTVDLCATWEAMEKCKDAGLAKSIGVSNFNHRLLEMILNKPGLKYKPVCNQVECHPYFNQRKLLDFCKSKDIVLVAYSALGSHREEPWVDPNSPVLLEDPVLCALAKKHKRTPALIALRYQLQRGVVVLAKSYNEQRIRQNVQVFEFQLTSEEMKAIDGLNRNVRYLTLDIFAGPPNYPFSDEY
Method: Inhibition of the Aldo-Keto Reductase Family 1 Member C2
Recombinant human aldo-keto reductase family 1 member C2 (AKR1C2) protein (GenBank Accession No. NM_001354.6) produced in Sf-9 insect cells with baculovirus was used for screening. Recombinant protein (13.6 nM/0.5 μg/ml) was incubated in 20 mM KH2PO4 pH 7.4, 1 mM EDTA, complete protease inhibitor tablet, 1 mM NADPH with 6.25 nM ^3H-labelled dihydrotestosterone for 45 min at +37° C., in the presence of the potential inhibitor at 10 μM concentration. Inhibitor stock solutions were prepared in DMSO. Final concentration of DMSO was adjusted to 1% in all samples. The enzyme reaction was stopped by addition of 10% trichloroacetic acid (final concentration 1%). Samples were filtrated through […] filtration plate (Merck). Analyses of samples was done with Waters Acquity UPLC H-class equipped with XBridge C18 column and XBridge VanGuard C18 guard column. Acetonitrile: 0.1% formic acid in water (42/58 v/v) with flow of 1.2 ml/min was used for mobile phase. The eluent was mixed with scintillant and the radioactivity was monitored in the eluate by a Scintillation Analyser. The conversion percentage of triated substrate (dihydrotestosterone) to tritiated product (5α-androstane-3α,17β-diol) for each sample was determined by the relative percentages of substrate and product in the chromatogram. The inhibition percentages of samples were calculated using following formula: […]

[3] = target: T3, 17β-Hydroxysteroid Dehydrogenase Type 2 Enzyme (17β-HSD2) (Homo sapiens, UniProt P37059); assay: Inhibition of the 17β-hydroxysteroid dehydrogenase type 2 enzyme, 3H-testosterone conversion; conditions: inhibitor at 10 μM
T3 construct: made in house; host or cells: Sf-9 insect cells (baculovirus)
T3 sequence (P37059 1-387): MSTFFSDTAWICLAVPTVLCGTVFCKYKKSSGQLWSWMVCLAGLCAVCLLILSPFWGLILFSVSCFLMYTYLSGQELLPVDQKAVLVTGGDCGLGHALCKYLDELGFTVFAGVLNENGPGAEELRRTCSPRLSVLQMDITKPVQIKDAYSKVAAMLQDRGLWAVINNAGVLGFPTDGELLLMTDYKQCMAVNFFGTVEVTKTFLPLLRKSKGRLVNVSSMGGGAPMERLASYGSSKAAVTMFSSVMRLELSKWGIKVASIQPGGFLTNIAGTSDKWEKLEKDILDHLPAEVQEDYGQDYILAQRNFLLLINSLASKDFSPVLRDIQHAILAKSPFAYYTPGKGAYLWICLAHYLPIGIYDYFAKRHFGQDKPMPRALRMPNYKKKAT
Method: Inhibition of the 17β-Hydroxysteroid Dehydrogenase Type 2 Enzyme
Recombinant human 173-HSD2 protein (GenBank Accession No. NM_002153.3) produced in Sf-9 insect cells with baculovirus was used for screening.
Recombinant protein (105 nM/4.5 μg/ml) was incubated in 20 mM KH2PO4 pH 8.5, 1 mM EDTA, complete protease inhibitor cocktail, 1 mM NAD with 56.25 nM testosterone (including ^3H-labelled testosterone) for 30 min at RT, in the presence of the potential inhibitor at 10 μM concentration. Inhibitor stock solutions were prepared in DMSO. Final concentration of DMSO was adjusted to 1% in all samples. The enzyme reaction was stopped by addition of 10% trichloroacetic acid (final concentration 1%). Samples were filtrated through […] filtration plate. Analyses of samples was done with Waters Acquity UPLC H-class equipped with XBridge C18 column and XBridge VanGuard C18 guard column. Acetonitrile: 0.1% formic acid in water (42/58 v/v) with flow of 1.2 ml/min was used for mobile phase. The eluent was mixed with scintillant and the radioactivity was monitored in the eluate by a Scintillation Analyser. The conversion percentage of tritiated substrate (testosterone) to product tritiated (androstenedione) for each sample was determined by the relative percentages of substrate and product in the chromatogram. The inhibition percentages of samples were calculated using following formula: […]

N#CC(=C1CCN(C(=O)N2CCC(CO)CC2)CC1)c1ccc(F)cc1 [Compound 19, 2-(4-fluorophenyl)-2-(1-(4-(hydroxymethyl)piperidine-1-carbonyl)piperidin-4-ylidene)acetonitrile]
inhibition at 0.5 µM [1]: 99%
inhibition at 10 µM [2]: 12%
inhibition at 10 µM [3]: 19%

N#CC(=C1CCN(C(=O)N2CCC(CCCO)CC2)CC1)c1ccc(Cl)cc1 [Compound 132, 2-(4-chlorophenyl)-2-(1-(4-(3-hydroxypropyl)piperidine-1-carbonyl)piperidin-4-ylidene)acetonitrile]
inhibition at 0.5 µM [1]: 95%
inhibition at 10 µM [2]: 8%
inhibition at 10 µM [3]: 17%

CCOC1CCN(C(=O)N2CCC(=C(C#N)c3cccc4[nH]ncc34)CC2)CC1 [Compound 92, 2-(1-(4-ethoxypiperidine-1-carbonyl)piperidin-4-ylidene)-2-(1H-indazol-4-yl)acetonitrile]
inhibition at 0.5 µM [1]: 96%
inhibition at 10 µM [2]: 6%
inhibition at 10 µM [3]: 30%

N#CC(=C1CCN(C(=O)N2CCc3sccc3C2)CC1)c1ccc(Cl)cn1 [Compound 66, 2-(5-chloropyridin-2-yl)-2-(1-(4,5,6,7-tetrahydrothieno[3,2-c]pyridine-5-carbonyl)piperidin-4-ylidene)acetonitrile]
inhibition at 0.5 µM [1]: 96%
inhibition at 10 µM [2]: 8%
inhibition at 10 µM [3]: 12%

N#CC(=C1CCN(C(=O)N2CCC(S(N)(=O)=O)CC2)CC1)c1ccc(Cl)cc1 [Compound 126, 1-(4-((4-chlorophenyl)(cyano)methylene)piperidine-1-carbonyl)piperidine-4-sulfonamide]
inhibition at 0.5 µM [1]: 97%
inhibition at 10 µM [2]: 10%
inhibition at 10 µM [3]: 2%

N#CC(=C1CCN(C(=O)N2C3CCC2COC3)CC1)c1ccc(F)c(F)c1 [Compound 31, 2-(1-(3-oxa-8-azabicyclo[3.2.1]octane-8-carbonyl)piperidin-4-ylidene)-2-(3,4-difluorophenyl)acetonitrile]
inhibition at 0.5 µM [1]: 95%
inhibition at 10 µM [2]: 11%
inhibition at 10 µM [3]: 9%

N#CC(=C1CCN(C(=O)N2CCC(CCCO)CC2)CC1)c1cccc(Cl)c1 [Compound 95, 2-(3-chlorophenyl)-2-(1-(4-(3-hydroxypropyl)piperidine-1-carbonyl)piperidin-4-ylidene)acetonitrile]
inhibition at 0.5 µM [1]: 94%
inhibition at 10 µM [2]: 22%
inhibition at 10 µM [3]: 25%

N#CC(=C1CCN(C(=O)N2CCc3sccc3C2)CC1)c1ccc(F)c(F)c1 [Compound 35, 2-(3,4-difluorophenyl)-2-(1-(4,5,6,7-tetrahydrothieno[3,2-c]pyridine-5-carbonyl)piperidin-4-ylidene)acetonitrile]
inhibition at 0.5 µM [1]: 96%
inhibition at 10 µM [2]: 27%
inhibition at 10 µM [3]: 28%

N#CC(=C1CCN(C(=O)N2CC(C#N)C2)CC1)c1ccc(F)cc1 [Compound 23, 1-(4-(cyano(4-fluorophenyl)methylene)piperidine-1-carbonyl)azetidine-3-carbonitrile]
inhibition at 0.5 µM [1]: 96%
inhibition at 10 µM [2]: 13%
inhibition at 10 µM [3]: 1%

N#CC(=C1CCN(C(=O)N2CCC(O)CC2)CC1)c1ccc(C(F)(F)F)cc1 [Compound 127, 2-(1-(4-hydroxypiperidine-1-carbonyl)piperidin-4-ylidene)-2-(4-(trifluoromethyl)phenyl)acetonitrile]
inhibition at 0.5 µM [1]: 96%
inhibition at 10 µM [2]: -6%
inhibition at 10 µM [3]: 5%

COC1CCN(C(=O)N2CCC(=C(C#N)c3ccc(Cl)cc3)CC2)CC1 [Compound 79, 2-(4-chlorophenyl)-2-(1-(4-methoxypiperidine-1-carbonyl)piperidin-4-ylidene)acetonitrile]
inhibition at 0.5 µM [1]: 99%
inhibition at 10 µM [2]: 6%
inhibition at 10 µM [3]: 10%

CC(=O)N1CCN(C(=O)N2CCC(=C(C#N)c3ccc(Cl)cc3)CC2)CC1 [Compound 130, 2-(1-(4-acetylpiperazine-1-carbonyl)piperidin-4-ylidene)-2-(4-chlorophenyl)acetonitrile]
inhibition at 0.5 µM [1]: 97%
inhibition at 10 µM [2]: 0%
inhibition at 10 µM [3]: 12%

N#CC(=C1CCN(C(=O)N2CCc3nocc3C2)CC1)c1cccc(Cl)c1 [Compound 89, 2-(3-chlorophenyl)-2-(1-(4,5,6,7-tetrahydroisoxazolo[4,3-c]pyridine-5-carbonyl)piperidin-4-ylidene)acetonitrile]
inhibition at 0.5 µM [1]: 98%
inhibition at 10 µM [2]: 18%
inhibition at 10 µM [3]: 15%

N#CC(=C1CCN(C(=O)N2CC(C#N)C2)CC1)c1ccc(F)c(F)c1 [Compound 36, 1-(4-(cyano(3,4-difluorophenyl)methylene)piperidine-1-carbonyl)azetidine-3-carbonitrile]
inhibition at 0.5 µM [1]: 94%
inhibition at 10 µM [2]: 10%
inhibition at 10 µM [3]: -3%

N#CC(=C1CCN(C(=O)N2CCC(C(F)(F)F)CC2)CC1)c1ccc(F)cc1 [Compound 98, 2-(4-fluorophenyl)-2-(1-(4-(trifluoromethyl)piperidine-1-carbonyl)piperidin-4-ylidene)acetonitrile]
inhibition at 0.5 µM [1]: 97%
inhibition at 10 µM [2]: 8%
inhibition at 10 µM [3]: 18%

N#CC(=C1CCN(C(=O)N2CCc3nocc3C2)CC1)c1cc(F)cc(F)c1 [Compound 158, 2-(3,5-difluorophenyl)-2-(1-(4,5,6,7-tetrahydroisoxazolo[4,3-c]pyridine-5-carbonyl)piperidin-4-ylidene)acetonitrile]
inhibition at 0.5 µM [1]: 101%
inhibition at 10 µM [2]: 22%
inhibition at 10 µM [3]: -4%
